Results taken from patent US8685928B2, “Antagonists of MUC1” (Dana-Farber Cancer Institute, Inc., priority 2010, dated 2014).
Non-standard residues stand in square brackets, D forms with d. Residues, ends and D or L forms follow the SMILES beside them.

How the values were obtained:
[1] = tested on: MiaPaCa pancreatic carcinoma xenograft; test: MiaPaCa pancreatic carcinoma xenograft model, daily IP; format: in vivo, mouse; settings: for Tumor response: 30 mg/kg IP daily for 28 days
Protocol: (§1) Efficacy of GO-203-2, the reduced form of GO-203-2c that is responsible for binding to and inhibiting oligomerization of MUC1-CD was evaluated in several different human tumor xenograft models. For these studies BALB/c nu/nu mice (6-7 weeks old; Charles River Laboratories, Wilmington, Mass.) were injected with 10 million COLO-205 colon carcinoma, MiaPaCa pancreatic carcinoma or SKOV3 ovarian carcinoma cells in the right thigh. When tumors reached a predetermined size (80-125 mm^3), mice were randomized into groups of 8 animals and treatment was initiated, which consisted of daily IP injection of GO-203-2 (30 mg/kg), control peptide CP-2 (30 mg/kg) or PBS vehicle control for 28 days. Mice with tumors in excess of ˜2 g or with ulcerated tumors were euthanized, as were those found in obvious distress or in a moribund condition. Mice without palpable tumors were maintained until 90 to 100 days after treatment initiation to confirm lack of re-growth. In addition, animals were weighed periodically during the treatment period and examined for clinical signs of toxicity.

[2] = tested on: SKOV3 ovarian carcinoma xenograft; test: SKOV3 ovarian carcinoma xenograft model, daily IP; format: in vivo, mouse; settings: for Tumor response: 30 mg/kg IP daily for 28 days
Protocol: as §1

[3] = Clinical signs of toxicity in xenograft-bearing mice; format: in vivo, mouse; settings: 30 mg/kg IP daily for 28 days
Protocol: as §1

[4] = tested on: COLO-205 colon carcinoma xenograft; test: COLO-205 colon carcinoma xenograft model, daily IP; format: in vivo, mouse; settings: for Tumor response: 30 mg/kg IP daily for 28 days
Protocol: as §1

[5] = tested on: human carcinoma cell lines
Protocol: A series of in vitro and in vivo primary pharmacodynamic studies was conducted to assess efficacy and mechanism of action of GO-203-2c in human tumor cells.
GO-203-2 and GO-203-2c were evaluated for ability to inhibit proliferation of murine and human carcinoma cell lines in vitro. Test compound (5 μM final concentration) was added to tumor cell cultures daily for 5 to 6 days, and cell viability was determined by trypan blue dye exclusion.

[6] = molecular target: T1, norepinephrine transporter (Homo sapiens, UniProt P23975); test: biochemical
T1 sequence (P23975 whole entry, species assumed): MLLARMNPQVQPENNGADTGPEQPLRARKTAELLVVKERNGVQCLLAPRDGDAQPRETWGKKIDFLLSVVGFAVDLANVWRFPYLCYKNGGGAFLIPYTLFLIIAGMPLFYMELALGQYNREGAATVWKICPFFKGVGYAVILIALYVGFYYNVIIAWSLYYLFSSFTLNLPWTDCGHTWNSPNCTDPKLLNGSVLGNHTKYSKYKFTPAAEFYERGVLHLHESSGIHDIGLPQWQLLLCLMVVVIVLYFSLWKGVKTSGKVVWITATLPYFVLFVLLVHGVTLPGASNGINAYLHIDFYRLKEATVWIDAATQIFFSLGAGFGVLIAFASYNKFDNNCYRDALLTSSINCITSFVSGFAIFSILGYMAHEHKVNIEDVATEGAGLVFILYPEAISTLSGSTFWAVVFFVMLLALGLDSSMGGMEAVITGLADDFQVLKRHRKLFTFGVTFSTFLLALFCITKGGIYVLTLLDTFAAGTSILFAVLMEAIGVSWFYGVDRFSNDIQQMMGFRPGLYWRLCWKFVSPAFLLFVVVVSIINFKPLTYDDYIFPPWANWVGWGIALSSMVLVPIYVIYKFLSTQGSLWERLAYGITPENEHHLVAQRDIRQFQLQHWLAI

adrenergic α1B receptor = adrenergic α1B receptor (Homo sapiens, UniProt P35368); test: biochemical
Sequence of adrenergic α1B receptor (P35368 whole entry): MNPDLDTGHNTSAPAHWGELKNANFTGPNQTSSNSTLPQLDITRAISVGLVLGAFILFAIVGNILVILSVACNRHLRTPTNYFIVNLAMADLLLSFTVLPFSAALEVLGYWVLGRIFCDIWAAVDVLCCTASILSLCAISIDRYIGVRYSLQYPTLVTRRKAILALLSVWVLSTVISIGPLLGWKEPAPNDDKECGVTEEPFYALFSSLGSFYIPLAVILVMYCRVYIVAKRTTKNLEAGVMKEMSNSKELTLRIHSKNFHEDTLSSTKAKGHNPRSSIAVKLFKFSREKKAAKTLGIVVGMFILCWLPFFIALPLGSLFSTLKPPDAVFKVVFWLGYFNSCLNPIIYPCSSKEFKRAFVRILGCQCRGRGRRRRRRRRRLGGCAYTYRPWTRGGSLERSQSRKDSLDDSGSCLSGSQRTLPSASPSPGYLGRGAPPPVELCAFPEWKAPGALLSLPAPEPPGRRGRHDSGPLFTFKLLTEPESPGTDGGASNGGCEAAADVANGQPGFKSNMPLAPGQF

His-tagged MUC1-CD [7] = molecular target: T2, His-tagged MUC1-CD (Homo sapiens, UniProt P15941); test: Oligomerization of purified His-tagged MUC1-CD proteins in a cell-free system; format: biochemical
T2 construct: contains a 72-amino acid cytoplasmic domain (MUC1-CD)
T2 sequence (P15941 1182-1255 limits assumed): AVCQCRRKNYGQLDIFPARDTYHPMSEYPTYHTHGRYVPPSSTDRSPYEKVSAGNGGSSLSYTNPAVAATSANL
Description: This finding is not surprising based on a requirement for the cysteine residues in the GO-203-2 binding domain (CQCRRKN) to be available for binding with cysteine residues on the corresponding binding domain of the MUC1-CD protein.

His-tagged MUC1-CD [8] = test: Cell-free oligomerization of purified His-tagged MUC1-CD, species comparison; format: biochemical; settings: MUC1-CD from rat, dog and human compared
Protocol: (§2) Studies were also conducted to confirm pharmacological relevance of the rodent and nonrodent species chosen for toxicology studies, namely the rat and dog, respectively. MUC1-CD amino acid sequence was determined to be greater than 80% identical between rat, dog and human proteins, and similar expression of MUC1 was found in stomach, intestinal and lung epithelium from the different species using immunohistochemical staining. […] The results of these studies indicate that potential MUC1-CD targets in the rat, dog and human are similar with respect to sequence, tissue expression and responsiveness to inhibition of oligomerization by GO-203-2c, and confirm pharmacological relevance of the species chosen for nonclinical safety assessment of GO-203-2c.

H1975 Lung cancer cells = test: Inhibition of cell proliferation, trypan blue exclusion (Table 2); format: cell-based, human; settings: 5 μM peptide every day, 6-day treatment
Protocol: (§3) Cells (ZR-75-1 breast carcinoma or H-1975 non-small cell lung carcinoma) were plated separately in 24-well plates for 24 hours prior to treatment with different peptides. The cells were then treated with 5 μM (final concentration) of different peptides every day for 4-6 days. On the day of termination, cells were washed two times with PBS and trypsinized with 0.3 ml of Trypsin/EDTA. Cell growth media was used to stop the trypsin reaction. Following washing, the cells were centrifuged and the cell pellets were re-suspended in PBS for counting in hemacytometer.
(§4) The trypan blue dye exclusion method was used to determine the number of viable cells present in a cell suspension. Cell suspension was mixed as 1:1 with the trypan blue dye and then visually examined in a hemacytometer. A viable cell will have a clear cytoplasm whereas a non-viable/dead cell will be stained with trypan blue dye. By doing this trypan blue exclusion method, viable cell numbers were counted and percent inhibition of proliferation was then calculated comparing with untreated controls.

[9] = molecular target: nicotinic acetylcholine α1 (bungarotoxin) receptor (Homo sapiens, UniProt P02708+P07510+Q07001); test: biochemical
Sequence of nicotinic acetylcholine α1 (bungarotoxin) receptor (P07510 23-517): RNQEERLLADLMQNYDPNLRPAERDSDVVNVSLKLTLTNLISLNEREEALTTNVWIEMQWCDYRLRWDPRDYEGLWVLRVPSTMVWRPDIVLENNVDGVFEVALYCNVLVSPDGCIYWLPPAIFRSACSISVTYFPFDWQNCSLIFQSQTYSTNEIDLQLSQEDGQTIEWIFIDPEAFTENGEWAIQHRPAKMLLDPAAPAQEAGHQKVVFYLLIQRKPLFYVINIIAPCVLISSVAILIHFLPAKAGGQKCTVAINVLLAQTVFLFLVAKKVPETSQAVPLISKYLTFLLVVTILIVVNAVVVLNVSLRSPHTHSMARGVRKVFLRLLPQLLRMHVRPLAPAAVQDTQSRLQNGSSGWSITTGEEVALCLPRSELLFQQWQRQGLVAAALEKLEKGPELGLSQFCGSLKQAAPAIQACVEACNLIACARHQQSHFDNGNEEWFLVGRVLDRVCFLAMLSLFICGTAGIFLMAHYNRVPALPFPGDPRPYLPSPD
Sequence of nicotinic acetylcholine α1 (bungarotoxin) receptor (P02708 21-457): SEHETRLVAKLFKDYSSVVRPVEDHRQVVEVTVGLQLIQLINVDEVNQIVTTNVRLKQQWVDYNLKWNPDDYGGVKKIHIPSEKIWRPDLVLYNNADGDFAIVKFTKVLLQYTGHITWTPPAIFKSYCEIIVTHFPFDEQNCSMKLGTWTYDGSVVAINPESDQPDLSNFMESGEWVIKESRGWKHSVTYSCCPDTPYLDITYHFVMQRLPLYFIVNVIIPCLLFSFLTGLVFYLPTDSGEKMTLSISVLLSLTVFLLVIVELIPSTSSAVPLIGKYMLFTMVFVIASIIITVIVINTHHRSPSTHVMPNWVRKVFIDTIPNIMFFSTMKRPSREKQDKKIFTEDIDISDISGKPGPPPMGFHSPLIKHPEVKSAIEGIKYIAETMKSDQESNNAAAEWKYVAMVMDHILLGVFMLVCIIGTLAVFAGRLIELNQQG
Sequence of nicotinic acetylcholine α1 (bungarotoxin) receptor (Q07001 22-517): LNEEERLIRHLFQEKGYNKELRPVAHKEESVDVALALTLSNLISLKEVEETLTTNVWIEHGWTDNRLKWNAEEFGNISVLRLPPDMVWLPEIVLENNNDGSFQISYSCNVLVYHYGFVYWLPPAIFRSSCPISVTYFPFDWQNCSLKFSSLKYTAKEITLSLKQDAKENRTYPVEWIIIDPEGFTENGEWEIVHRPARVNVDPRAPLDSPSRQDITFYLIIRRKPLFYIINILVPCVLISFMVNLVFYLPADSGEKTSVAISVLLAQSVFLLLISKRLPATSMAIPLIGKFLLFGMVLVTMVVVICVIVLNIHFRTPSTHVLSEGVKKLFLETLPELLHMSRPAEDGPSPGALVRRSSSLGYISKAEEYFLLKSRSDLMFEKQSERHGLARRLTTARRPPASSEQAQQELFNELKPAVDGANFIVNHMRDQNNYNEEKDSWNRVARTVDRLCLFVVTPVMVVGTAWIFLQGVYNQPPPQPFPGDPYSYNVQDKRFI
Sequence of nicotinic acetylcholine α1 (bungarotoxin) receptor (P11230 24-501, further chain): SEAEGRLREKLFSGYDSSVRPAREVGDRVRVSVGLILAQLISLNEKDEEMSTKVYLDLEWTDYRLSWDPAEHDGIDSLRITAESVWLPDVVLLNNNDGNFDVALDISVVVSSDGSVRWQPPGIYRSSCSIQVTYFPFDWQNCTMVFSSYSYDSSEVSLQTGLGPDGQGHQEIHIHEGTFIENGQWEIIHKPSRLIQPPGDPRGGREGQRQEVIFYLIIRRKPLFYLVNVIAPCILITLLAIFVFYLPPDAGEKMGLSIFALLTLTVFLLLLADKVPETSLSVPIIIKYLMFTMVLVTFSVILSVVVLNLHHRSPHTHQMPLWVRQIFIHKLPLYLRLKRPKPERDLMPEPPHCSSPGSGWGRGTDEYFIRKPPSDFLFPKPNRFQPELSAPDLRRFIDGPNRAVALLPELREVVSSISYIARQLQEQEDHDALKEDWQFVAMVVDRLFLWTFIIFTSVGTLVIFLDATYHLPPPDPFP

MUC1-CD = MUC1-CD oligomerization in transfected HEK 293T cells, species comparison; format: cell-based; settings: MUC1-CD from rat, dog and human compared
Protocol: as §2

muscarinic M2 receptor [10] = molecular target: T3, muscarinic M2 receptor (Homo sapiens, UniProt P08172); test: biochemical
T3 sequence (P08172 whole entry): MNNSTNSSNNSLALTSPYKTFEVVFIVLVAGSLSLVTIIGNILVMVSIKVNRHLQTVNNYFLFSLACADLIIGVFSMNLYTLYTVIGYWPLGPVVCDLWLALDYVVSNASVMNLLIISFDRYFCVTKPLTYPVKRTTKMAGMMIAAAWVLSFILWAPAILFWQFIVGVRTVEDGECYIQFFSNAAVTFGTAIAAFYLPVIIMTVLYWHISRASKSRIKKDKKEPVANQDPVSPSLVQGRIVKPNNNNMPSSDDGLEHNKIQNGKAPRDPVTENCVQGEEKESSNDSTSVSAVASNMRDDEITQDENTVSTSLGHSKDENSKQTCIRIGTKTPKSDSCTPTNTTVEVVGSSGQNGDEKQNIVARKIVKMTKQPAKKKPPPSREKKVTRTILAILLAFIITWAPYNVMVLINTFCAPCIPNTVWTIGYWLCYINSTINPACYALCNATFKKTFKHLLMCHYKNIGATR

[11] = tested on: ZR-75-1 Breast cancer cells; test: Inhibition of cell proliferation, trypan blue exclusion (Table 1); format: cell-based, human; settings: 5 μM peptide every day, 6-day treatment
Protocol: as §3, §4

adrenergic α1A receptor = adrenergic α1A receptor (Homo sapiens, UniProt P35348); test: biochemical
Sequence of adrenergic α1A receptor (P35348 whole entry): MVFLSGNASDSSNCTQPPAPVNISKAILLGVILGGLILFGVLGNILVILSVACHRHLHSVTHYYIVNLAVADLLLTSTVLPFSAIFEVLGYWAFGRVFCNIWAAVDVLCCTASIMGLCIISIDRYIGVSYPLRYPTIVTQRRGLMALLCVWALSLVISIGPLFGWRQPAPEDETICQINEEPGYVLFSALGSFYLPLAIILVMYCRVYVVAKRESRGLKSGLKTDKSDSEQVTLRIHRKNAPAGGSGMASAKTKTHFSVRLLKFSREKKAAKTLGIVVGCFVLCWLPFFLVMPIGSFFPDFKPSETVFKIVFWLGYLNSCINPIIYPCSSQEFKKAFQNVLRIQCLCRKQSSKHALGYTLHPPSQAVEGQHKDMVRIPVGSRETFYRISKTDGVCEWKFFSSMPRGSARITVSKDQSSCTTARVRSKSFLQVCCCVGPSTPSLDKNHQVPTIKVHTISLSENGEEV

[12] = molecular target: T1, norepinephrine transporter; settings: at a concentration of 10 μM
[13] = tested on: ZR-75-1 human breast carcinoma xenograft; test: ZR-75-1 human breast carcinoma xenograft model, daily dosing for 21 days; format: in vivo, mouse; settings: 4 mg/kg IV daily for 21 days, nu/nu mice
Protocol: Efficacy of GO-203-2c was evaluated in a ZR-75-1 human breast carcinoma xenograft model. Female nu/nu mice (20-30 g; Charles River Laboratories, Wilmington, Mass.) were injected in the thigh with 5 million ZR-75-1 cells in Matrigel suspension. Mice also received subcutaneous 17-β-estradiol pellets. When tumors reached 100-200 mm^3 in size (approximately 12-15 days after implantation), mice were split into 4 groups of 5 mice and administered the following treatments daily for 21 days: phosphate-buffered saline (PBS) IP, 1 mg/kg GO-203-2c IV, 4 mg/kg GO-203-2c IV or 4 mg/kg control peptide CP-3 IV. Each animal was sacrificed when the tumor reached the predetermined endpoint size (˜2500 mm^3) or when the animals remained tumor-free for 180 days after implantation of the tumor cells.

muscarinic M2 receptor [14] = molecular target: T3, muscarinic M2 receptor; settings: at a concentration of 10 μM
[15] = up to 90 to 100 days post treatment initiation

In the case of `C[C@@H](NC(=O)[C@@H](CCC(N)=O)NC(=O)[C@@H](C)NC(=O)[C@@H](CCCNC(=N)N)NC(=O)[C@@H](CCCNC(=N)N)NC(=O)[C@@H](CCCNC(=N)N)NC(=O)[C@@H](CCCNC(=N)N)NC(=O)[C@@H](CCCNC(=N)N)NC(=O)[C@@H](CCCNC(=N)N)NC(=O)[C@@H](CCCNC(=N)N)NC(=O)[C@@H](CCCNC(=N)N)NC(=O)[C@H](N)CCCNC(=N)N)C(=O)N[C@H](CCCNC(=N)N)C(=O)N[C@H](CCCNC(=N)N)C(=O)N[C@H](CCCCN)C(=O)N[C@H](CC(N)=O)C(=O)O` [CP-2, reference compound] (H-[dR][dR][dR][dR][dR][dR][dR][dR][dR][dA][dQ][dA][dR][dR][dK][dN]-OH), the Tumor response [1] is reported as “without effect”, the Tumor response [2] is reported as “without effect” and the “Side effects of treatment (weight, clinical signs of toxicity)” value [3] is reported as “no observable side effects”. The Tumor response [4] was “without effect”.
In the case of `CC(=O)N[C@H](CCCNC(=N)N)C(=O)N[C@H](CCCNC(=N)N)C(=O)N[C@H](CCCNC(=N)N)C(=O)N[C@H](CCCNC(=N)N)C(=O)N[C@H](CCCNC(=N)N)C(=O)N[C@H](CCCNC(=N)N)C(=O)N[C@H](CCCNC(=N)N)C(=O)N[C@H](CCCNC(=N)N)C(=O)N[C@H](CCCNC(=N)N)C(=O)N[C@H](CS)C(=O)N[C@H](CCC(N)=O)C(=O)N[C@H](CS)C(=O)N[C@H](CCCNC(=N)N)C(=O)N[C@H](CCCNC(=N)N)C(=O)N[C@H](CCCCN)C(=O)N[C@H](CC(N)=O)C(N)=O` [GO-203-2] (Ac-[dR][dR][dR][dR][dR][dR][dR][dR][dR][dC][dQ][dC][dR][dR][dK][dN]-NH2), the “50% inhibition (IC50) of proliferation” value [5] is reported as 5 to 11 mg/L, the IC50 [5] is reported as 2 to 5 µM and the IC50 [6] is reported as 3 to 8 µM. For the same molecule, the IC50 (adrenergic α1B receptor) was 3 to 8 µM, the Tumor response [1] was “complete growth arrest and regression” and the Recurrence of tumors [1, 15] was “no evidence of recurrence”. The “Inhibition of MUC1-CD oligomerization, reduced vs oxidized form” value (His-tagged MUC1-CD [7]) was “much more effective”, the “Inhibition of oligomerization of purified His-tagged MUC1-CD” value (His-tagged MUC1-CD [8]) was “inhibited” and the Tumor response [2] was “complete tumor growth arrest and regression”. The Recurrence of tumors [2, 15] was “no evidence of recurrence”, the “Avg (viable cell number of Groups 1-3)” value (H1975 Lung cancer cells) was 6.66 and the “% inhibition” value (H1975 Lung cancer cells; vs untreated control) was 63.64%. The “Group-1 (viable cell number, individual well)” value (H1975 Lung cancer cells; well having 10,000 cells) was 6.23, the “Group-2 (viable cell number, individual well)” value (H1975 Lung cancer cells; well having 10,000 cells) was 6.34 and the “Group-3 (viable cell number, individual well)” value (H1975 Lung cancer cells; well having 10,000 cells) was 7.42. The IC50 [9] was 3 to 8 µM, the “Inhibition of MUC1-CD oligomerization” value (MUC1-CD) was “in an equivalent manner” and the IC50 (muscarinic M2 receptor [10]) was 3 to 8 µM. The “Avg (viable cell number of Groups 1-3)” value [11] was 8.06, the “% inhibition” value ([11]; vs untreated control) was 65.49% and the “Group-1 (viable cell number, individual well)” value ([11]; well having 10,000 cells) was 7.14. For the same molecule, the “Group-2 (viable cell number, individual well)” value ([11]; well having 10,000 cells) was 9.38, the “Group-3 (viable cell number, individual well)” value ([11]; well having 10,000 cells) was 7.67 and the “Side effects of treatment (weight, clinical signs of toxicity)” value [3] was “no observable side effects”. The Tumor response [4] was “complete tumor growth arrest and regression”, the Recurrence of tumors [4, 15] was “no evidence of recurrence” and the IC50 (adrenergic α1A receptor) was 3 to 8 µM.
For “CP-3: control peptide containing AQA instead of CQC amino acid sequence in the binding domain (RRRRRRRRRCQCRRKN) [reference compound]”, the “% inhibition of radioligand binding” value [12] was 79%, the Tumor response [13] was “ineffective” and the Tumor response ([13]; listed as CP3) was “no effect on tumor growth”. The “% inhibition of radioligand binding” value (muscarinic M2 receptor [14]) was 55%.
